# According to patent US9527869B2, “Indolizine derivatives as phoshoinositide 3-kinases inhibitors” (CHIESI FARMACEUTICI S.P.A., priority 2014, dated 2016):
# Structures can show the parent of a compound that is named as a salt.
# How the values were obtained:
# Format in all cases: biochemical
# PI3Kβ = biological target: T1, PI3Kβ (Homo sapiens, UniProt P42338); test: In vitro determination of the PI3K enzyme inhibitory activity in the cell free assay (ADP-Glo Kinase Assay), PI3Kβ; conditions: ATP 100 μM, read-out: PI3K beta inhibition
# T1 construct: purchased Millipore Ltd (Billerica, Mass.)
# Method in brief: (§1)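 IC50 values came from four-parameter logistic fitting of ADP-Glo luminescence after 60 min kinase reactions at room temperature. ATP (final) was set per isoform: α 50 μM, β 100 μM, γ 30 μM, δ 80 μM. Substrates were phosphatidylinositol and phosphatidylserine (50 μM in 2× Tris pH 7.5 buffer), with human recombinant enzymes.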
# PI3Kγ = biological target: T2, PI3Kγ (Homo sapiens, UniProt P48736); test: In vitro determination of the PI3K enzyme inhibitory activity in the cell free assay (ADP-Glo Kinase Assay), PI3Kγ; conditions: ATP 30 μM, read-out: PI3K gamma inhibition
# T2 construct: purchased Millipore Ltd (Billerica, Mass.)
# Method in brief: as §1
# PI3Kδ = biological target: T3, PI3Kδ (Homo sapiens, UniProt O00329); test: In vitro determination of the PI3K enzyme inhibitory activity in the cell free assay (ADP-Glo Kinase Assay), PI3Kδ; conditions: ATP 80 μM, read-out: PI3K delta inhibition
# T3 construct: purchased Millipore Ltd (Billerica, Mass.)
# Method in brief: as §1
# PI3Kα = biological target: T4, PI3Kα (Homo sapiens, UniProt P42336); test: In vitro determination of the PI3K enzyme inhibitory activity in the cell free assay (ADP-Glo Kinase Assay), PI3Kα; conditions: ATP 50 μM, read-out: PI3K alpha inhibition
# T4 construct: purchased Millipore Ltd (Billerica, Mass.)
# Method in brief: as §1
# T4 sequence (P42336 whole entry): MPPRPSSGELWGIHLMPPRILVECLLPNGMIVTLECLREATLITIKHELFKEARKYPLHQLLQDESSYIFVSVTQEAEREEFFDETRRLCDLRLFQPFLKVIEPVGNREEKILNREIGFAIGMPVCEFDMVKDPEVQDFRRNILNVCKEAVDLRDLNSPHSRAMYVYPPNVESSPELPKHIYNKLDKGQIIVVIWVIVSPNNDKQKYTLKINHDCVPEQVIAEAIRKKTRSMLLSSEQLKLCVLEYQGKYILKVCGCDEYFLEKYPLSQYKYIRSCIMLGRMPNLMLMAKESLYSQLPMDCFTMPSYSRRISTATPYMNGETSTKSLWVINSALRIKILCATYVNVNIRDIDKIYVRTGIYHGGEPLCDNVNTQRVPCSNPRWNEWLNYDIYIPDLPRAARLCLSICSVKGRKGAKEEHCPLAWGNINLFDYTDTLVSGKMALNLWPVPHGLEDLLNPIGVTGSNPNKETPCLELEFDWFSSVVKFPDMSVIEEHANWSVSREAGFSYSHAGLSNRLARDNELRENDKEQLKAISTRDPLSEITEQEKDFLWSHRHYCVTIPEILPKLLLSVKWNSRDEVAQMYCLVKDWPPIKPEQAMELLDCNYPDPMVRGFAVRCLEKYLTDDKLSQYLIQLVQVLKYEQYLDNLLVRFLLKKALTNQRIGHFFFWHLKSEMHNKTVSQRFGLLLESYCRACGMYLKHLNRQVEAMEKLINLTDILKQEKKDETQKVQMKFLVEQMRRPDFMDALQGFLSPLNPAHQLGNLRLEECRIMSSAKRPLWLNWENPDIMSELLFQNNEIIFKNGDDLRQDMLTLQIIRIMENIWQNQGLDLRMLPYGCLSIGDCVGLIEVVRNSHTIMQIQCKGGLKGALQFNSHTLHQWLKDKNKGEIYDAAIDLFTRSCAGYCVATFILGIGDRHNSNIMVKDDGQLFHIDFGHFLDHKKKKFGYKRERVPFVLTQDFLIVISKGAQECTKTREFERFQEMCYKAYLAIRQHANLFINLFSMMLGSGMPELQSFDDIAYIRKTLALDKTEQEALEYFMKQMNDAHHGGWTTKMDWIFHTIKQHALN
# T4 sequence (P27986 whole entry partner): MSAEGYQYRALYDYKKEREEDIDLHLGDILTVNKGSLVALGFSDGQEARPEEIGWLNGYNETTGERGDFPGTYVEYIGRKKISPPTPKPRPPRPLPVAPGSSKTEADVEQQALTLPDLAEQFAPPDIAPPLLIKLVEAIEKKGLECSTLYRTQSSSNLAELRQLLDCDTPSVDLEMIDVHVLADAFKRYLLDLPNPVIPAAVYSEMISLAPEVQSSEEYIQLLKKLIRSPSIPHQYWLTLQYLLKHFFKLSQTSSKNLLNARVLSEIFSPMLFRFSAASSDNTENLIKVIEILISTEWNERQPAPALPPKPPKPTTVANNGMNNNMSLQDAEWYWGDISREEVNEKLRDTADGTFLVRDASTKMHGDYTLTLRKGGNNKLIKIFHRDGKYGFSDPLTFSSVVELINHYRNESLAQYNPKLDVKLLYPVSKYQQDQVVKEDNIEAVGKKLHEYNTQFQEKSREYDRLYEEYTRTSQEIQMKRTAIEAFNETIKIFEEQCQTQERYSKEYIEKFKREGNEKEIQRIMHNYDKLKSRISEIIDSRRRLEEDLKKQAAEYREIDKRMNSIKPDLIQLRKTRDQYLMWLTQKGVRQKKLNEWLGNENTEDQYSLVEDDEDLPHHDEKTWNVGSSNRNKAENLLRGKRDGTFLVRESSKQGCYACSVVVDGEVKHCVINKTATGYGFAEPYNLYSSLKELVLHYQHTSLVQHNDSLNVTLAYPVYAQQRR
# T2 sequence (P48736 whole entry): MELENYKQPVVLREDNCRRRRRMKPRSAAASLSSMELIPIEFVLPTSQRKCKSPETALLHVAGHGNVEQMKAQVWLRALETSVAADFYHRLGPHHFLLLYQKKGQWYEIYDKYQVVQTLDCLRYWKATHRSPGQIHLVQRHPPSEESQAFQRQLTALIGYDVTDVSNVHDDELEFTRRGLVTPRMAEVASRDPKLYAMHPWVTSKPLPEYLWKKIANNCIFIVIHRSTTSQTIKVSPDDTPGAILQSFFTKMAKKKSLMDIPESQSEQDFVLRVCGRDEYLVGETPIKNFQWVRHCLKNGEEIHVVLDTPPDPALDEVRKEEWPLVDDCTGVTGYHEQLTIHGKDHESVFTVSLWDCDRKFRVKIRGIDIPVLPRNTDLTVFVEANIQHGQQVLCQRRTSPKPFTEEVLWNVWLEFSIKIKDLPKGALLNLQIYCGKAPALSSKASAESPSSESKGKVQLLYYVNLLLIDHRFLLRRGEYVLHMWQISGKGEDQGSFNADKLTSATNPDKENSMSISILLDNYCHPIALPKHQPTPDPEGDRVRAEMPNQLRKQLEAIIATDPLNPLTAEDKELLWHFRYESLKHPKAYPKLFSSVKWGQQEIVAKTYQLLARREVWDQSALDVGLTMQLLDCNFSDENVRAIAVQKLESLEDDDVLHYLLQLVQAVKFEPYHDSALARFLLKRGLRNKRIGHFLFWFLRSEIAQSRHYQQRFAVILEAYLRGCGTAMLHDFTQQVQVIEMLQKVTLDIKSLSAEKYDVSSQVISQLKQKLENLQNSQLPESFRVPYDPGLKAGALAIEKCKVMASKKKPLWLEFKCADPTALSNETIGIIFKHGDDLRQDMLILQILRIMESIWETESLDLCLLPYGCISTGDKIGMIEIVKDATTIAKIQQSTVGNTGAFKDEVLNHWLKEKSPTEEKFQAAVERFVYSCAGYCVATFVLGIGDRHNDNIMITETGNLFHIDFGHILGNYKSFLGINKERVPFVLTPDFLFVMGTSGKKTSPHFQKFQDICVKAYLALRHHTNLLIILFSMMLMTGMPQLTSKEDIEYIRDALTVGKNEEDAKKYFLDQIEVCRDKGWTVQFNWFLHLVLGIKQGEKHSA
# T3 sequence (O00329 whole entry): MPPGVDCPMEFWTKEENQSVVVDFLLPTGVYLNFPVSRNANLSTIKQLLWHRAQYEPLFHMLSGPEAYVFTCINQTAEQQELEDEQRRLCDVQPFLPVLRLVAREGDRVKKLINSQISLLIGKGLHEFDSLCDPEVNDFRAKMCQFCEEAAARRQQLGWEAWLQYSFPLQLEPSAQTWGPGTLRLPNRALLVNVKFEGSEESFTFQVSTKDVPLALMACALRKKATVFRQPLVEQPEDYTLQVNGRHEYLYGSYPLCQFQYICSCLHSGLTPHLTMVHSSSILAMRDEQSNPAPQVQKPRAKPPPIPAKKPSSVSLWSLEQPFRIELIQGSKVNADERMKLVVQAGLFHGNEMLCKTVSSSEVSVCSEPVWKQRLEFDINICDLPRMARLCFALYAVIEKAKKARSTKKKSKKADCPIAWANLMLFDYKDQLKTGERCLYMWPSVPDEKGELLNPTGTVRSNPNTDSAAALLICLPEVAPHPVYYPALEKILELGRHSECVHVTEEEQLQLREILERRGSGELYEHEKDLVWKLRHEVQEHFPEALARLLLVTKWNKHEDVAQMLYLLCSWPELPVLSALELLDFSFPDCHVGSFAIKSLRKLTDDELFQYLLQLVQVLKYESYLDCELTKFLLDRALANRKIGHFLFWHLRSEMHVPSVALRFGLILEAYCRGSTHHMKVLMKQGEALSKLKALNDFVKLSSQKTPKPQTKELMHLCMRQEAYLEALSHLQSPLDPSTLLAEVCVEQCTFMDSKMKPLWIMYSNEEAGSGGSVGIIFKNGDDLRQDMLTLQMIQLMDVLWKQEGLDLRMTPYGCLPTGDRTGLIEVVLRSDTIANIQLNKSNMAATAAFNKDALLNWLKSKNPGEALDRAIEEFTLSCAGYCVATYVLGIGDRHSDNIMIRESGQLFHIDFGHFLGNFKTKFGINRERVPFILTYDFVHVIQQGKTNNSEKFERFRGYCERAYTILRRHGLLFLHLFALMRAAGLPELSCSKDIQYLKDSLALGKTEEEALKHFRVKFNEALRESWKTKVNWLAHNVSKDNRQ
# T3 sequence (P27986 whole entry partner): as the sequence (P27986 whole entry partner) above
# T1 sequence (P42338 whole entry): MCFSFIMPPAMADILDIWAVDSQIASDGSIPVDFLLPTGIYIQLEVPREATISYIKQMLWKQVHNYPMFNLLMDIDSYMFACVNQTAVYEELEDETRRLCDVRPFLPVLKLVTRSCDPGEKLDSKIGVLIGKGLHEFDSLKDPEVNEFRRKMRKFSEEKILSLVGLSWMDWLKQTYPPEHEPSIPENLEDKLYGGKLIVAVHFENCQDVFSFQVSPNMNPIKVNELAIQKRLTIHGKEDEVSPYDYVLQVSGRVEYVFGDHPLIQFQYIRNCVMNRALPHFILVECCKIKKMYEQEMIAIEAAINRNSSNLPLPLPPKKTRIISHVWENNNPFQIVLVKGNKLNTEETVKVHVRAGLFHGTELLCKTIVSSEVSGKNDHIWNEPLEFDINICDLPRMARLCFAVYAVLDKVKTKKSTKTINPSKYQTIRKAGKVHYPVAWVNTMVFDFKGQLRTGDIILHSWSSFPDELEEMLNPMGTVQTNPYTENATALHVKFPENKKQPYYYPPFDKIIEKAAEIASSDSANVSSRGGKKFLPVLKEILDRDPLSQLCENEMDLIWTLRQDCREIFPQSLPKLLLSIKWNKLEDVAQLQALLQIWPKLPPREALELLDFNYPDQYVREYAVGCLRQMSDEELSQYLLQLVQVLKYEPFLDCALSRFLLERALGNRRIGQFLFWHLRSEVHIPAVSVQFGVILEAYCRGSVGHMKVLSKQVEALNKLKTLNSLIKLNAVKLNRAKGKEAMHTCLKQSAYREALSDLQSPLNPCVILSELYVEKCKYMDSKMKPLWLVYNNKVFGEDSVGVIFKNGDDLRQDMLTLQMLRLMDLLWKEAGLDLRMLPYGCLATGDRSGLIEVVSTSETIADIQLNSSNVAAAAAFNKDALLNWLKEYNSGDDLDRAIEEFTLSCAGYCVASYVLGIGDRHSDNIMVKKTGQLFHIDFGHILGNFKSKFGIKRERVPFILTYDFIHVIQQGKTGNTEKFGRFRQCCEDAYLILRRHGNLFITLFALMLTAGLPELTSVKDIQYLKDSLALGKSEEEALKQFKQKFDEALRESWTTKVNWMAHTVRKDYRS
# T1 sequence (P27986 whole entry partner): as the sequence (P27986 whole entry partner) above
IC50 (PI3Kβ),IC50 (PI3Kγ),IC50 (PI3Kδ),IC50 (PI3Kα),SMILES
> 1000 nM,> 1000 nM,10 to 1000 nM,> 1000 nM,"CC(Nc1ncnc(N)c1C(N)=O)c1cc2ccccn2c1-c1ccccn1 (stereo not drawn) [Example 52, 4-amino-6-({1-[3-(pyridin-2-yl)indolizin-2-yl]ethyl}amino)pyrimidine-5-carboxamide]"
> 1000 nM,> 1000 nM,> 1000 nM,> 1000 nM,"CC(Nc1ncnc(N)c1C(=O)O)c1cc2ccccn2c1-c1ccccn1 (stereo not drawn) [Example 53, 4-amino-6-({1-[3-(pyridin-2-yl)indolizin-2-yl]ethyl}amino)pyrimidine-5-carboxylic acid formate]"
> 1000 nM,> 1000 nM,> 1000 nM,> 1000 nM,"CC(NC(=O)c1nccnc1N)c1cc2ccccn2c1-c1ccccn1 (stereo not drawn) [Example 54, 3-amino-N-{1-[3-(pyridin-2-yl)indolizin-2-yl]ethyl}pyrazine-2-carboxamide]"
> 1000 nM,> 1000 nM,> 1000 nM,> 1000 nM,"Nc1nccnc1C(=O)NCc1cn2ccccc2c1-c1ccccn1 [Example 55, 3-amino-N-{[1-(pyridin-2-yl)indolizin-2-yl]methyl}pyrazine-2-carboxamide]"
> 1000 nM,> 1000 nM,> 1000 nM,> 1000 nM,"CC(Nc1ncnc(N)c1CO)c1cc2ccccn2c1-c1ccccn1 (stereo not drawn) [Example 56, [4-amino-6-({1-[3-(pyridin-2-yl)indolizin-2-yl]ethyl}amino)pyrimidin-5-yl]methanol]"
> 1000 nM,> 1000 nM,> 1000 nM,> 1000 nM,"CC(Nc1ncnc(N)c1CN1CCOCC1)c1cc2ccccn2c1-c1ccccn1 (stereo not drawn) [Example 57, 5-(morpholin-4-ylmethyl)-4-N-{1-[3-(pyridin-2-yl)indolizin-2-yl]ethyl}pyrimidine-4,6-diamine]"
10 to 1000 nM,> 1000 nM,< 10 nM,> 1000 nM,"CC(Nc1ncnc(N)c1/C=N/O)c1cc2ccccn2c1-c1ccccn1 (stereo not drawn) [Example 58, 5-[(1E)-(hydroxyimino)methyl]-4-N-{1-[3-(pyridin-2-yl)indolizin-2-yl]ethyl}pyrimidine-4,6-diamine]"
> 1000 nM,> 1000 nM,10 to 1000 nM,> 1000 nM,"CC(Nc1ncnc(N)c1C#CCO)c1cc2ccccn2c1-c1ccccn1 (stereo not drawn) [Example 59, 3-[4-amino-6-({1-[3-(pyridin-2-yl)indolizin-2-yl]ethyl}amino)pyrimidin-5-yl]prop-2-yn-1-ol]"
> 1000 nM,> 1000 nM,10 to 1000 nM,> 1000 nM,"CC(c1cc2ccccn2c1-c1ccccn1)n1nc(-c2ccccc2)c2c(N)ncnc21 (stereo not drawn) [Example 60, 3-phenyl-1-{1-[3-(pyridin-2-yl)indolizin-2-yl]ethyl}-1H-pyrazolo[3,4-d]pyrimidin-4-amine]"
10 to 1000 nM,10 to 1000 nM,10 to 1000 nM,> 1000 nM,"CC(c1cc2ccccn2c1-c1ccccn1)n1nc(-c2cccc(O)c2)c2c(N)ncnc21 (stereo not drawn) [Example 61, 3-(4-amino-1-{1-[3-(pyridin-2-yl)indolizin-2-yl]ethyl}-1H-pyrazolo[3,4-d]pyrimidin-3-yl)phenol]"
> 1000 nM,> 1000 nM,10 to 1000 nM,> 1000 nM,"COc1cc(F)cc(-c2nn(C(C)c3cc4ccccn4c3-c3ccccn3)c3ncnc(N)c23)c1 (stereo not drawn) [Example 62, 3-(3-fluoro-5-methoxyphenyl)-1-{1-[3-(pyridin-2-yl)indolizin-2-yl]ethyl}-1H-pyrazolo[3,4-d]pyrimidin-4-amine]"
> 1000 nM,> 1000 nM,> 1000 nM,> 1000 nM,"CC(=O)Nc1cccc(-c2nn(C(C)c3cc4ccccn4c3-c3ccccn3)c3ncnc(N)c23)c1 (stereo not drawn) [Example 63, N-[3-(4-amino-1-{1-[3-(pyridin-2-yl)indolizin-2-yl]ethyl}-1H-pyrazolo[3,4-d]pyrimidin-3-yl)phenyl]acetamide]"
> 1000 nM,> 1000 nM,10 to 1000 nM,> 1000 nM,"CC(c1cc2ccccn2c1-c1ccccn1)n1nc(-c2cccc(CO)c2)c2c(N)ncnc21 (stereo not drawn) [Example 64, [3-(4-amino-1-{1-[3-(pyridin-2-yl)indolizin-2-yl]ethyl}-1H-pyrazolo[3,4-d]pyrimidin-3-yl)phenyl]methanol]"
10 to 1000 nM,10 to 1000 nM,< 10 nM,> 1000 nM,"CC(c1cc2ccccn2c1-c1ccccn1)n1nc(-c2cc(O)cc(C(F)(F)F)c2)c2c(N)ncnc21 (stereo not drawn) [Example 65, 3-(4-amino-1-{1-[3-(pyridin-2-yl)indolizin-2-yl]ethyl}-1H-pyrazolo[3,4-d]pyrimidin-3-yl)-5-(trifluoromethyl)phenol]"
10 to 1000 nM,> 1000 nM,10 to 1000 nM,> 1000 nM,"CC(c1cc2ccccn2c1-c1ccccn1)n1nc(-c2cccc(F)c2)c2c(N)ncnc21 (stereo not drawn) [Example 66, 3-(3-fluorophenyl)-1-{1-[3-(pyridin-2-yl)indolizin-2-yl]ethyl}-1H-pyrazolo[3,4-d]pyrimidin-4-amine]"
> 1000 nM,> 1000 nM,10 to 1000 nM,> 1000 nM,"CC(c1cc2ccccn2c1-c1ccccn1)n1nc(-c2cccc(NS(C)(=O)=O)c2)c2c(N)ncnc21 (stereo not drawn) [Example 67, N-[3-(4-amino-1-{1-[3-(pyridin-2-yl)indolizin-2-yl]ethyl}-1H-pyrazolo[3,4-d]pyrimidin-3-yl)phenyl]methanesulfonamide]"
> 1000 nM,> 1000 nM,10 to 1000 nM,> 1000 nM,"CC(c1cc2ccccn2c1-c1ccccn1)n1nc(-c2cccnc2)c2c(N)ncnc21 (stereo not drawn) [Example 68, 1-{1-[3-(pyridin-2-yl)indolizin-2-yl]ethyl}-3-(pyridin-3-yl)-1H-pyrazolo[3,4-d]pyrimidin-4-amine]"
10 to 1000 nM,10 to 1000 nM,< 10 nM,> 1000 nM,"CC(c1cc2ccccn2c1-c1ccccn1)n1nc(-c2cncc(O)c2)c2c(N)ncnc21 (stereo not drawn) [Example 69, 5-(4-amino-1-{1-[3-(pyridin-2-yl)indolizin-2-yl]ethyl}-1H-pyrazolo[3,4-d]pyrimidin-3-yl)pyridin-3-ol]"
> 1000 nM,10 to 1000 nM,10 to 1000 nM,> 1000 nM,"CC(c1cc2ccccn2c1-c1ccccn1)n1nc(-c2ccc(O)c(F)c2)c2c(N)ncnc21 (stereo not drawn) [Example 70, 4-(4-amino-1-{1-[3-(pyridin-2-yl)indolizin-2-yl]ethyl}-1H-pyrazolo[3,4-d]pyrimidin-3-yl)-2-fluorophenol]"
> 1000 nM,10 to 1000 nM,10 to 1000 nM,> 1000 nM,"CC(c1cc2ccccn2c1-c1ccccn1)n1nc(-c2ccc(F)c(O)c2)c2c(N)ncnc21 (stereo not drawn) [Example 71, 5-(4-amino-1-{1-[3-(pyridin-2-yl)indolizin-2-yl]ethyl}-1H-pyrazolo[3,4-d]pyrimidin-3-yl)-2-fluorophenol]"
10 to 1000 nM,10 to 1000 nM,< 10 nM,> 1000 nM,"CC(c1cc2ccccn2c1-c1ccccn1)n1nc(-c2cc(O)cc(Cl)c2)c2c(N)ncnc21 (stereo not drawn) [Example 72, 3-(4-amino-1-{1-[3-(pyridin-2-yl)indolizin-2-yl]ethyl}-1H-pyrazolo[3,4-d]pyrimidin-3-yl)-5-chlorophenol]"
